Data published in patent US8058292B2, “Therapeutic agents useful for treating pain” (Purdue Pharma L.P., priority 2003, dated 2011).

Target: T1, rat mGluR5 (Rattus norvegicus, UniProt P31424)
T1 construct: expressed in transfected cells; host or cells: CHO cells (CHO-rat mGluR5 line, kept under Geneticin selection)
Assay: Calcium mobilization flux (FLIPR) in CHO-rat mGluR5 cells in the presence of glutamate
Format: cell-based
Settings: 10 uM glutamate, Fluo 4 calcium flux, mean of 4 experiments
Experimental: 40,000 CHO-rat mGluR5 cells/well were plated into 96 well plate (Costar 3409, Black, clear bottom, 96 well, tissue culture treated) for an overnight incubation in Dulbecco's Modified Eagle's Medium (DMEM, pH 7.4) and supplemented with glutamine, 10% FBS, 1% Pen/Strep, and 500 ug/mL Geneticin. CHO-rat mGluR5 cells were washed and treated with Optimem medium and were incubated for 1-4 hours prior to loading cells. […]
The plates containing the CHO-rat mGluR5 cells were transferred to a FLIPR for the assessment of calcium mobilization flux in the presence of glutamate and in the presence or absence of test compounds. After monitoring fluorescence for 15 seconds to establish a baseline, DMSO solutions containing various concentrations of the test compound diluted in loading buffer (0.05 mL of 4× dilutions for the competition curves) were added to the cell plate and fluorescence was monitored for 2 minutes. […] Plate fluorescence was then monitored for an additional 60 seconds after agonist addition. […] In each experiment, fluorescence was monitored as a function of time and the data analyzed using Microsoft Excel and GraphPad Prism. […] In each experiment, each data point was determined at least two times.

T1 sequence (P31424 21-1203): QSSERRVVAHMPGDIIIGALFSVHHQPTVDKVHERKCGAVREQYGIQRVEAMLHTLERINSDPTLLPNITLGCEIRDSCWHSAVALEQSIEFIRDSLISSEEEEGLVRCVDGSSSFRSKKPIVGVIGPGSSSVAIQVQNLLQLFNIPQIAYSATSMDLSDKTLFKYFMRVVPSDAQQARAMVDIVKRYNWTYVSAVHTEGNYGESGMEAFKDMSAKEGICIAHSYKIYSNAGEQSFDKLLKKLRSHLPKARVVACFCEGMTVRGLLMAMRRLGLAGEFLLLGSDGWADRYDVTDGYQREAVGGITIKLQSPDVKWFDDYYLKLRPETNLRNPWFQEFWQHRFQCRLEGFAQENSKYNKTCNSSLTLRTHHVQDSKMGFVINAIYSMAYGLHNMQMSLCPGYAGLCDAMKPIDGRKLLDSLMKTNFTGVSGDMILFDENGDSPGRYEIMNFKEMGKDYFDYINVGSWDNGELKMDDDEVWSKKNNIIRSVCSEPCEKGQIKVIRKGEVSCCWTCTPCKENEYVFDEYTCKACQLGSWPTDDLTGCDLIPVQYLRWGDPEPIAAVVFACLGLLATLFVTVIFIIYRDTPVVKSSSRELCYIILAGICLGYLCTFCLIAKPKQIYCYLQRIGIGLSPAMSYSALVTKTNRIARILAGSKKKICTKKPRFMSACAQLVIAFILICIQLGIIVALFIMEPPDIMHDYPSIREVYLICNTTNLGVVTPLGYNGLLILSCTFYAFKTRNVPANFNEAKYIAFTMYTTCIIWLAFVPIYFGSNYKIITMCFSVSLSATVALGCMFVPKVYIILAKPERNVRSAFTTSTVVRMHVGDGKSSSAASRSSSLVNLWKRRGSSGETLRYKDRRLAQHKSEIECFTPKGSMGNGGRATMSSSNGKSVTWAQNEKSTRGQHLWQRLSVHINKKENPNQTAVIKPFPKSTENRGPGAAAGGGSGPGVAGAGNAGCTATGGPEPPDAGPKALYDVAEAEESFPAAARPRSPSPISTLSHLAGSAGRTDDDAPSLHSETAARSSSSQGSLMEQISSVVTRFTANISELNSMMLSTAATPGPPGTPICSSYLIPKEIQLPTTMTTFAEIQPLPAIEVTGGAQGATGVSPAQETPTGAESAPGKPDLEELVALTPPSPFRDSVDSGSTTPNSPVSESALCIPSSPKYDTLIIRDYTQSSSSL

- IC50: 110 ± 17.9 nM
Structure (SMILES): O=C(C#Cc1ccccc1)N1CC(Nc2ncccc2[N+](=O)[O-])C1 [AAB(Ib)]
